{"source": "patent US6630507B1", "about": "“Cannabinoids as antioxidants and neuroprotectants” (The United States of America as represented by the …, priority 1998, dated 2003)", "key": {"[1]": {"assay": "Cyclic voltametry (oxidation potentials)", "format": "physicochemical", "settings": "for oxidation (electron donation) potential by cyclic voltametry: scan +0 to 1.8 V, 100 mV per second, acetonitrile; for oxidation profile by cyclic voltametry: data not shown", "method": "To investigate whether cannabinoids protect neurons against glutamate damage by reacting with ROS, the antioxidant properties of cannabidiol and other cannabinoids were assessed. Cyclic voltametry, a procedure that measures the ability of a compound to accept or donate electrons under a variable voltage potential, was used to measure the oxidation potentials of several natural and synthetic cannabinoids. These studies were performed with an EG&G Princeton Applied Research potentiostat/galvanostat (Model 273/PAR 270 software, NJ). The working electrode was a glassy carbon disk with a platinum counter electrode and silver/silver chloride reference. Tetraethylammonium chloride in acetonitrile (0.1 M) was used as an electrolyte. Cyclic voltametry scans were done from +0 to 1.8 V at scan rate of 100 mV per second. […] Anandamide, a cannabinoid receptor ligand without a cannabinoid like structure, was used as a non-responsive control. Each experiment was repeated twice with essentially the same results."}, "[2]": {"test_system": "cannabinoid receptor", "settings": "cited from earlier work"}, "[3]": {"test_system": "NMDA receptor", "settings": "cited from earlier work"}, "[4]": {"test_system": "neurons (AMPA/kainate receptor mediated toxicity)", "assay": "AMPA and kainate receptor mediated toxicity in cultured neurons (LDH release)", "format": "cell-based, Wistar rat", "settings": "for attenuation of glutamate toxicity, comparison of antioxidants: 100 μM glutamate, equimolar 5 μM antioxidant (FIG. 5B)", "protocol": "(§1) Primary neuronal cultures were prepared according to the method of Ventra et al. (J. Neurochem. 66:1752-1761, 1996). Fetuses were extracted by Cesarian section from a 17 day pregnant Wistar rat, and the feral brains were placed into phosphate buffered saline. The cortices were then dissected out, cut into small pieces and incubated with papain for nine minutes at 37° C. After this time the tissue was dissociated by passage through a fire polished Pasteur pipette, and the resultant cell suspension separated by centrifugation over a gradient consisting of 10 mg/ml bovine serum albumin and 10 mg/ml ovomucoid (a trypsin inhibitor) in Earls buffered salt solution. The pellet was then re-suspended in high glucose, phenol red free Dulbeco's modified Eagles medium containing 10% fetal bovine serum, 2 mM glutamine, 100 IU penicillin, and 100 μg/ml streptomycin (DMEM). Cells were counted, tested for vitality using the trypan blue exclusion test and seeded onto poly-D-lysine coated 24 multiwell plates. After 96 hours, 10 μM fluoro-deoxyuridine and 10 μM uridine were added to block glial cell growth.\nAstrocyte conditioned DMEM was used throughout the AMPA/kainate toxicity procedure and following glutamate exposure in the NMDAr mediated toxicity protocol. Media was conditioned by 24 hour treatment over a confluent layer of type I astrocytes, prepared from two day old Wistar rat pups. Cortices were dissected, cut into small pieces, and enzymatically digested with 0.25% trypsin. Tissue was then dissociated by passage through a fire polished Pasteur pipette and the cell suspension plated into untreated 75 cm^2 T-flasks. After 24 hours the media was replaced and unattached cells removed. Once astrocytes achieved confluence, cells were divided into four flasks. Media for experiments was conditioned by a 24 hour exposure to these astrocytes, after which time it was frozen at −20° C. until use. Astrocyte cultures were used to condition DMEM for no longer than two months.\nTo examine AMPA and kainate receptor mediated toxicity, neurons were cultured for 7-13 days, then exposed to 100 μM glutamate and 50 μM cyclothiazide (used to prevent AMPA receptor desensitization). […] Specific AMPA and kainate receptor ligands were also used to separately examine the effects of cannabinoids on AMPA and kainate receptor mediated events. Fluorowillardiine (1.5 μM) was the AMPA agonist and 4-methyl glutamate (10 μM) was the kainate agonist used to investigate receptor mediated toxicity. When specifically examining kainate receptor activity, cyclothiazide was replaced with 0.15 mg/ml Concanavalin-A."}, "[5]": {"assay": "Iron catalyzed dihydrorhodamine oxidation (Fenton reaction)", "settings": "50 μM dihydrorhodamine, 300 μM t-butyl hydroperoxide, 0.5 μM iron, 5 minutes"}, "[6]": {"settings": "J. Pharmacol. Sci. 60:1433-1457 (1971); cited from earlier work"}, "[7]": {"test_system": "cultured neurons (NMDAr mediated toxicity)", "assay": "NMDA mediated toxicity in cultured neurons (LDH release)", "format": "cell-based, Wistar rat", "settings": "0.5 μg/ml, administered both during and post ischemia (FIG. 8)", "protocol": "as §1\nTo examine NMDAr mediated toxicity, cultured neurons (cultured for 14-18 days) were exposed to 250 μM glutamate for 10 minutes in a magnesium free saline solution. […]"}}, "data": [{"compound": "CCCCCCC(C)(C)c1cc(O)c2c(c1)OC(C)(C)[C@@H]1CC=C(CO)CC21", "note": "(single isomer, unassigned; (-)) [HU-211]", "values": [{"measurement": "oxidation (electron donation) potential by cyclic voltametry", "setting": "[1]", "result": "donated electrons at a similar potential as the antioxidant BHT"}, {"measurement": "affinity to the cannabinoid receptors", "setting": "[2]", "result": "low affinity"}, {"measurement": "activity at the NMDA receptor", "setting": "[3]", "result": "retains NMDA receptor antagonist neuroprotective activity"}]}, {"compound": "CCCCC/C=C\\C/C=C\\C/C=C\\C/C=C\\CCCC(=O)NCCO", "note": "[Anandamide, arachidonyl ethanolamide]", "values": [{"measurement": "oxidation (electron donation) potential by cyclic voltametry", "setting": "[1]", "result": "did not undergo oxidation"}]}, {"compound": "tetrahydrocannabinol [THC]", "values": [{"measurement": "neuroprotection in presence of cannabinoid receptor antagonist SR-141716A", "setting": "[4]; 5 μM compound plus SR-141716A (FIG. 2B)", "result": "Neither THC nor cannabidiol neuroprotection was affected"}, {"measurement": "neuroprotection in AMPA/kainate receptor toxicity assays", "setting": "[4]; 100 μM Glu, 5 μM compound (FIG. 2A)", "result": "similarly protective"}, {"measurement": "oxidation (electron donation) potential by cyclic voltametry", "setting": "[1]", "result": "donated electrons at a similar potential as the antioxidant BHT"}, {"measurement": "prevention of dihydrorhodamine oxidation", "setting": "[5]", "result": "prevented dihydrorhodamine oxidation"}]}, {"compound": "CC(=O)Oc1cc(O[C@H](C)CCCc2ccccc2)cc2c1[C@@H]1C[C@H](O)CC[C@H]1[C@H](C)N2", "note": "[levanantrodol]", "values": [{"measurement": "oxidation profile by cyclic voltametry", "setting": "[1]", "result": "oxidation profiles similar to cannabidiol and THC"}]}, {"compound": "CCCCCCC(C)(C)c1cc(O)c2c(c1)OC(C)(C)C1CCC(=O)CC21", "note": "(stereo not shown) [nabilone]", "values": [{"measurement": "oxidation profile by cyclic voltametry", "setting": "[1]", "result": "oxidation profiles similar to cannabidiol and THC"}]}, {"compound": "CCCCCCC(C)(C)c1cc(O)c2c(c1)OC(C)(C)[C@@H]1CC=C(CO)C[C@@H]21", "note": "[HU-210, 1,1 dimethylheptyl (DMH) homolog of [3R,4R]-7-hydroxy-Δ^6THC]", "values": [{"measurement": "cannabinomimetic activity relative to natural Δ^9 THC", "setting": "[2]; U.S. Pat. No. 5,434,295", "result": "two orders of magnitude greater"}, {"measurement": "side effects in subjects", "setting": "[6]", "result": "severe side effects, including fatigue, thirst, headache, and hypotension"}]}, {"compound": "CCCCC/C=C\\C[C@H](O)/C=C/C=C\\C/C=C\\CCCC(=O)O", "note": "[Compound 12-HETE, 12-(s)-hydroxy-eicosatetraenoic acid]", "values": [{"measurement": "protection of cortical neurons from NMDAr toxicity", "setting": "[7]", "result": "best protection"}]}, {"compound": "Cc1cc(C(C)(C)C)c(O)c(C(C)(C)C)c1", "note": "[BHT]", "values": [{"measurement": "attenuation of glutamate toxicity, comparison of antioxidants", "setting": "[4]", "result": "attenuated glutamate toxicity"}, {"measurement": "prevention of dihydrorhodamine oxidation", "setting": "[5]", "result": "prevented dihydrorhodamine oxidation"}]}, {"compound": "Cc1c(C)c2c(c(C)c1O)CC[C@@](C)(CCC[C@H](C)CCC[C@H](C)CCCC(C)C)O2", "note": "[α-tocopherol]", "values": [{"measurement": "attenuation of glutamate toxicity, comparison of antioxidants", "setting": "[4]", "result": "attenuated glutamate toxicity"}]}]}
